According to patent US5266591A, “Ethanolamine benzoate compounds” (Adir et Compagnie, priority 1991, dated 1993):
Where two headings read alike, the source gives them in different places.

Assays:
[1] = system: 52-week-old male SDCD rats; assay: Chronic treatment per os of 52-week-old male SDCD rats (weight, insulinaemia, glycaemia, glucose tolerance, lipids); format: in vivo, rat; settings: 14 days; for % weight change: 52-week-old male SDCD rats; for Basal insulinaemia % change / Cholesterol % change / Glucose tolerance K 10^-2 % change / Glycaemia % change / Triglyceride % change: vs control
Description: A. Study of the Effect of a Chronic Treatment Administered Per OS to 52-Week-Old Male SDCD Rats The tests are carried out on rats that have weight anomalies associated with hyperinsulism and hyperglyceridaemia. on the one hand the effect of a prolonged treatment with the product of Example 1 and the reference substances on those anomalies, and In this experiment, adult male SPRAGUE DAWLEY rats were used in groups of 5 to 12 animals. […]
a reduction in glucose tolerance, an increase in basal insulinaemia, and an increase in plasma lipids.
The housing (from 9 to 52 weeks) of these rats was effected in a chamber at a temperature regulated at from 21° to 22° C. which was subjected to a fixed cycle of light (from 7.30 to 19.30 hours) and darkness (from 19.30 to 7.30 hours). Their food consisted of a maintenance diet (UAR A 03); water and food were supplied "ad libitum", with the exception of the night-fasting preceding the tests, when the food was removed.
9 days before the beginning of the experiment (d-9), the rats are divided into groups by randomisation based on weight.
5 days before the beginning of the experiment (d-5) the rats are conditioned by administering a gum solution.
The first day of the experiment (d1), the products to be tested are administered to the rats at different doses twice per day. More precisely, the products are administered suspended in the gum between 9.00 and 10.00 hours and 16.00 and 17.00 hours for 14 days. The treated animals are weighed daily.
On day 15 the rats (fasted for 18 hours) are sacrificed by decapitation. The blood is immediately collected in a cupule. An amount (50 μl ) is transferred into 500 μl of uranyl acetate for determining the glycaemia. An amount of 3 ml is transferred into a tube containing a solution of heparin (30 μl per 1 ml of whole blood) and centrifuged to separate the plasma. Another amount of 300 μl is transferred to a tube containing 15 μl of a solution of EDTA/NaF for determining the lactates.

[2] = system: LDL (low-density lipoproteins); assay: In vitro LDL oxidation by copper; format: biochemical
Description: (§1) A comparative study between the product of Example 1 and the reference substances (benfluorex, dimethyl biguanide) with respect to in vitro LDL oxidation was carried out.

[3] = system: LDL (low-density lipoproteins); assay: In vitro LDL oxidation by monocytes; format: cell-based; settings: for In vitro LDL oxidation by monocytes, activity: at 10^-4 M
Description: as §1

[4] = system: esters of cholesterol; assay: Incorporation of oleate in the esters of cholesterol; format: cell-based; settings: for inhibition at 10 µM: read-out: Incorporation of oleate in the esters of cholesterol
[5] = system: conscious dogs; assay: Hypotensive effect in conscious dogs (sphygmomanometer on the tail); format: in vivo; settings: conscious dog, 5 mg/kg p.o., n = 4
Description: The arterial pressure was measured by external pressure band (sphygmomanometer) on the tail of the dog, before and after treatment with the product of Example 1 at a dose of 5 mg/kg p.o..

Row | SMILES | % weight change ([1]; 1 mg/kg x2 per day p.o.) | Basal insulinaemia % change ([1]; 1 mg/kg x2 per day p.o.) | Cholesterol % change ([1]; 1 mg/kg x2 per day p.o.) | Glucose tolerance K 10^-2 % change ([1]; 1 mg/kg x2 per day p.o.) | Glycaemia % change ([1]; 1 mg/kg x2 per day p.o.) | Triglyceride % change ([1]; 1 mg/kg x2 per day p.o.) | % weight change ([1]; 2.5 mg/kg x2 per day p.o.) | Basal insulinaemia % change ([1]; 2.5 mg/kg x2 per day p.o.) | Cholesterol % change ([1]; 2.5 mg/kg x2 per day p.o.) | Glucose tolerance K 10^-2 % change ([1]; 2.5 mg/kg x2 per day p.o.) | Glycaemia % change ([1]; 2.5 mg/kg x2 per day p.o.) | Triglyceride % change ([1]; 2.5 mg/kg x2 per day p.o.) | In vitro LDL oxidation by monocytes, activity [3] | further results
1 | CC(Cc1cccc(C(F)(F)F)c1)NCCOC(=O)c1ccccc1 (stereo not shown) [Benfluorex] | -2% | -10% | -20% | +30% | -10% | -43% | -6% | -16% | -30% | +25% | -12% | -44% | inactive | In vitro LDL oxidation by copper, activity ([2]; at 10^-4 M): inactive; inhibition at 10 µM ([4]; at 10^-5 M): 30%
2 | CN(C)C(=N)NC(=N)N [Dimethyl biguanide] | – | – | – | – | – | – | – | – | – | – | – | – | inactive | Incorporation of oleate in the esters of cholesterol ([4]; at 10^-5 M): inactive
3 | C[C@@H](Cc1cccc(C(F)(F)F)c1)NCCOC(=O)c1ccc(CCNC(=O)CC(c2ccccc2)c2ccccc2)cc1 [Example 1, (S)-1-(m-trifluoromethylphenyl)-2-{β-{4-[2-(N-(3,3-diphenylpropionyl)amino)ethyl]benzoyloxy}ethylamino}propane] | -1.4% | -15% | 0% | +23% | +8% | -10% | -3% | -26% | 0% | +30% | 0% | -20% | – | IC50 [2]: 50 µM; IC50 ([3]; read-out: In vitro LDL oxidation by monocytes, IC50): 50 µM; inhibition at 10 µM [4]: 70%; Decrease in arterial pressure, diastolic AP [5]: -20 to -27 mmHg; Decrease in arterial pressure, systolic AP [5]: -15 to -22 mmHg
